Patent US7361671B2, “Substituted heteroarylalkanoic acids” (The Institute for Pharmaceutical Discovery, Inc., priority 2001, dated 2008)
Structures can show the parent of a compound that is named as a salt.

target: human aldose reductase (hALR2) (Homo sapiens, UniProt P15121); experiment: inhibition of human aldose reductase (hALR2) activity, methods similar to Butera et al.; format: biochemical; settings: concentration to inhibit activity by 50%, read-out: hAR-#1 (aldose)
Protocol: Representative compounds of the invention are tested for their potency, selectivity and efficacy as inhibitors of human aldose reductase. […] Using this assay, the concentrations required to inhibit human aldose reductase (hALR2) activity by 50% (IC50) are determined.

IC50 [nM]	Compound
5	O=C(O)Cc1cc(Cc2nc3c(F)c(F)cc(F)c3s2)cnc1Cc1ccccc1 [Example 12, 2-benzyl-5-(4,5,7-trifluoro-benzothiazol-2-ylmethyl)-pyridin-3-yl-acetic acid hydrochloride]
31	CCc1c(CC(=O)O)c(C)nc(C)c1Cc1nc2c(F)c(F)cc(F)c2s1 [Example 10, 2,6-dimethyl-4-ethyl-5-(4,5,7-trifluoro-benzothiazol-2-ylmethyl)-pyridin-3-yl-acetic acid hydrochloride]
130	O=C(O)Cc1csc(Cc2nc3c(F)c(F)cc(F)c3s2)n1 [Example 25, [2-(4,5,7-Trifluoro-benzothiazol-2-ylmethyl)-thiazol-4-yl]-acetic acid]
6	CCc1ncc(Cc2nc3c(F)c(F)cc(F)c3s2)cc1CC(=O)O [Example 11, 2-ethyl-5-(4,5,7-trifluoro-benzothiazol-2-ylmethyl)-pyridin-3-yl-acetic acid hydrochloride]
6	Cc1nc(C)c(Cc2nc3c(F)c(F)cc(F)c3s2)c(C)c1CC(=O)O [Example 9, 2,4,6-trimethyl-5-(4,5,7-trifluoro-benzothiazol-2-ylmethyl)-pyridin-3-yl-acetic acid hydrochloride]
31	Cc1c(CC(=O)O)csc1Cc1nc2c(F)c(F)cc(F)c2s1 [Example 24, [4-methyl-5-(4,5,7-trifluoro-benzothiazol-2-ylmethyl)-thiophen-3-yl]-acetic acid]
8	O=C(O)Cc1cncc(Cc2nc3c(F)c(F)cc(F)c3s2)c1 [Example 8, 5-(4,5,7-trifluoro-benzothiazol-2-ylmethyl)-pyridin-3-yl-acetic acid hydrochloride]
6	O=C(O)Cc1cnc(-c2ccccc2)c(Cc2nc3c(F)c(F)cc(F)c3s2)c1 [Example 15, 6-Phenyl-5-(4,5,7-trifluoro-benzothiazol-2-ylmethyl)-pyridin-3-yl-acetic acid hydrochloride]
8	Cc1ccc2c(Cc3nc4c(F)c(F)cc(F)c4s3)cn(CC(=O)O)c2n1 [Example 2, [6-methyl-3-(4,5,7-trifluoro-benzothiazol-2-ylmethyl)-pyrrolo[2,3-b]pyridin-1-yl]-acetic acid]
7	O=C(O)Cc1cnc(Cc2ccccc2)c(Cc2nc3c(F)c(F)cc(F)c3s2)c1 [Example 16, 6-Benzyl-5-(4,5,7-trifluoro-benzothiazol-2-ylmethyl)-pyridin-3-yl-acetic acid hydrochloride]
8	O=C(O)Cc1cc(Cc2nc3c(F)c(F)cc(F)c3s2)cnc1-c1ccccc1 [Example 13, 2-phenyl-5-(4,5,7-trifluoro-benzothiazol-2-ylmethyl)-pyridin-3-yl-acetic acid hydrochloride]
